# Legend:
# USP22 = biological target: T1, USP22 (Mus musculus, UniProt Q5DU02); test: Biological screening of the 25 chemicals, FOXP3 MFI reduction as readout; format: cell-based; details: biological validation of the 25 chemicals
# T1 construct: endogenous in cells; probably murine iTreg
# T1 sequence (Q5DU02 1-525): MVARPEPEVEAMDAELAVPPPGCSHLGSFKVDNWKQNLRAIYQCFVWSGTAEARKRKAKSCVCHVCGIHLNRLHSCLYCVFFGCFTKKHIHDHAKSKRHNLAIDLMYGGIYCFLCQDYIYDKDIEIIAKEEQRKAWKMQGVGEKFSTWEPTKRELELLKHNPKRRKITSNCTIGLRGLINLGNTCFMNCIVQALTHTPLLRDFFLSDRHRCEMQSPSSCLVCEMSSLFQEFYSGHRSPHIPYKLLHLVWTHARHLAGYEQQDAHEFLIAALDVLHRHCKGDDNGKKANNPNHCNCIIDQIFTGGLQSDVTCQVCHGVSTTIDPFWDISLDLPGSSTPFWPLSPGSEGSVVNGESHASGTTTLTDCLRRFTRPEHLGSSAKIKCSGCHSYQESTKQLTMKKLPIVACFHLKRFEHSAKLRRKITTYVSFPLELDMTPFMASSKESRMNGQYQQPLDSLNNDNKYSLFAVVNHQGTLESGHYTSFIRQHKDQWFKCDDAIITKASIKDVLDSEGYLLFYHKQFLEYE
# T1 sequence (A2AWT3 1-347 partner): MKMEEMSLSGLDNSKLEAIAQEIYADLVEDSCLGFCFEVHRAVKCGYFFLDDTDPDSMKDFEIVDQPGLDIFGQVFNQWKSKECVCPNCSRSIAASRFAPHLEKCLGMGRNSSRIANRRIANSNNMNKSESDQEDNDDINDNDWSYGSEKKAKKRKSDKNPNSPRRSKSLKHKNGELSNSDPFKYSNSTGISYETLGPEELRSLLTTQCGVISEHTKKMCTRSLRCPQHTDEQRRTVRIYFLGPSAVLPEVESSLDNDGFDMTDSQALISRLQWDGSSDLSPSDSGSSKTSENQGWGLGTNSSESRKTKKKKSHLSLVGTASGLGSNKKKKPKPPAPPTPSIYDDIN
# T1 sequence (Q9JIX0 1-101 partner): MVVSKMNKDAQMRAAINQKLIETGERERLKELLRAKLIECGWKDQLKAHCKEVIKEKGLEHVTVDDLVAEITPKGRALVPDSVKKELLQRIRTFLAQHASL
# Excerpt: We then used both Lipinski's Rule and Veber's Rule to filter through the Specs database and found a total of 240K compounds binding to the catalytic pocket of our Usp22 model. We then filtered the top 100 compounds ranked by docking affinity by MD and MM/PBSA methods and were left with 25 compounds (Table 1). This limited number of compounds allowed us for further biological screening. As USP22 suppression leads to dramatic reduction in FOXP3 expression levels, we utilized FOXP3 MFI reduction as a readout for the biological validation of USP22 inhibitory efficacy by each of the 25 chemicals. […] The compound S02, structure shown in FIG. 6A, bound stably in the USP22 catalytic domain pocket shown by the RMSD trajectory (FIG. 14E) with strong binding energies to our USP22-md model (FIG. 14F). […] Therefore, future generations of Usp22 inhibitors should take into considerations not only the hydrophobic residues, but also the interaction between the inhibitor and the charged and polar residues on the surface of the binding pocket.
# naïve mice = test: In vivo toxicity and Treg phenotype in naïve mice
# Description: D, Graphical representation of Foxp3 MFI upon Usp22i-S02 administration (n=5). E, Tumor growth curve of LLC1 cells subcutaneously injected in the flank of WT mice with or without the addition of 20 mg/kg/time of the Usp22 inhibitor starting at day 15, in 100 μL of oil (n=4). F-G, Representative flow cytometry plot and graphical representation of % infiltration of CD4+ and CD8+ T cells within the tumor (n=4). […] I, MFI of itTreg suppressive markers (n=3-4). […] B, D-E, G, H-I Two-way ANOVA with multiple comparisons between rows was performed to determine statistical significance. J, Unpaired two tailed T test was performed to determine significance. All data are presented as mean±stdev. NS, not significant. *P<0.05, **P<0.01, ***P<0.001, ****P<0.0001.
# A, Body weight of Usp22i-S02 treated mice verses DMSO treated controls over the course of treatment (n=4). […] B, Percent of cell populations in naïve mice treated with Usp22i-S02 relative to DMSO control (n=3-4). […] E, Percent Annexin+PI+ T cells gates on CD45+ cells in naïve mice treated with Usp22i-S02 relative to DMSO control (n=4). F-H, Organ toxicity panel (VetScan VS2 Comprehensive Diagnostic Rotor lot 1061AA2) of naïve mice treated with Usp22i-S02 relative to DMSO control (n=2-3). […] J, Weights of resected tumors at day 16 from I (n=10). K-L, Representative flow plot and graphical representation of infiltrating T cells gated on CD45+ cells (n=5). […] Q, Percent of intratumoral Treg cells from mice treated with Usp22i-S02 verses DMSO control, gated on CD4+Foxp3+ from mice (n=5). A-E, I and L, Two-way ANOVA with Sidaks's multiple comparisons between rows relative to control was performed to determine statistical significance. F-H, J, and M-Q, Two-tailed unpaired t-test was performed to determine statistical significance. All data are presented as mean±stdev. NS, not significant. *P<0.05, **P<0.01, ***P<0.001, ****P<0.0001.
# An important aspect of a potential immunotherapeutic is its antitumor functionality paired with low immune toxicity. To determine the toxicity of Usp22i-S02 in vivo, we first determined its effects in naïve mice.
# LLC1 cells = LLC1 cells in vitro: counts, viability, growth; format: cell-based
# Description: FIG. 17: Usp22i-S02 inhibits tumor growth in vitro and in vivo. A, In vitro counts of LLC1 after treatment with Usp22i-S02 under various concentrations for 24 hours (n=2). B, In vitro viability of LLC1 after treatment with Usp22i-S02 under various concentrations for 24 hours (n=2). C, In vitro relative growth of LLC1 cells treated with 10 ug/ml of Usp22i-S02 relative to DMSO treated control for 7 days via OD600 (n=4). D, Growth curve of 1 million subcutaneously injected LLC1 cells into RAG−/− mice treated for 3 days Usp22i-S02 relative to DMSO control injections at day 15 of tumor growth (n=4). C-D, Two-way ANOVA with Sidaks's multiple comparisons between rows relative to control was performed to determine statistical significance. All data are presented as mean±stdev. NS, not significant. *P<0.05, **P<0.01, ***P<0.001, ****P<0.0001.
# As Usp22 is also an important oncogene (43, 44), we were interested in the potential dual-therapeutic function of Usp22i-S02.
structure (smiles),measurement,setting,value
"N#Cc1c2c(c(Nc3ccccc3)n3c1nc1ccccc13)CCCC2 [Chemical S02, 11-anilino-7,8,9,10-tetrahydro-benzimidazo [1,2-b] isoquinoline-6-carbonitrile]",efficacy in downregulating FOXP3 expression,USP22,strong efficacy in downregulating FOXP3 expression
same,FOXP3 MFI in Treg cells from the spleen and lymph nodes,"naïve mice; WT mice, 20 mg/kg in vivo",significant drop in FOXP3 MFI
same,Treg cell death,naïve mice; naïve mice vs DMSO control,significantly increased
same,organ toxicity (comprehensive tissue panel),naïve mice; naïve mice vs DMSO-treated control,no organ toxicity differences
same,"weights, B cell and Teff cell percentages and proliferation, Teff cell activation","naïve mice; naïve mice vs DMSO-treated control, 10 mg/kg twice a day for 3 days",little alteration
same,"tumor cell counts, viability and growth",LLC1 cells,"decreased tumor cell counts, viability, and growth"

# Reference: patent US20240238274A1, “INHIBITORS OF UBIQUITIN SPECIFIC PEPTIDASE 22 (USP22) AND USES THEREOF FOR TREATING DISEASE AND DISORDERS” (Northwestern University, priority 2021, published 2024)
